Results: patent publication US4552882A, “7-(1-Pyrrolyl) derivatives of 1-ethyl-1,4-dihydro-4-oxoquinoline-3-carboxylic acids and 1-ethyl-1,4-dihydro-4-oxo-1,8-naphthyridine-3-carboxylic acids and their use as antimicrobial agents” (Provesan, SA, priority 1983, dated 1985)

Assay: in vivo
Details: mouse, ip
Procedure: To determine this toxicity, C.F.L.P. strain albino mice of both sexes, weighing between 19 and 25 grams, have been used as experimental animals. After an 18 hour fast period with water "ad libitum" the derivatives which are the subjects of the present invention are administered intraperitoneally in 5% suspension in gum arabic. The volume of suspension administered has in all cases been 0.4 ml/20 grams (20 ml/kg), changing the concentration of the suspension according to the dose administered.
One hour after the administration of the derivatives, the animals are supplied with Panlab standard rat-mouse feed. The period of observation of mortality has been 7 days.

CCn1cc(C(=O)O)c(=O)c2ccc(C)nc21 [Nalidixic acid, reference compound]
LD50 at 168 h: 600 mg/kg
